Source: US7122173B2, “Agent for the treatment of bladder irritative symptoms accompanied by benign prostatic hyperplasia” (Kyowa Hakko Kogyo Co., Ltd., priority 2001, dated 2006)

Key:
DRG cells = test: Current clamp, changes in membrane potential in DRG cells; assay type: cell-based, rat; conditions: control (0 mol/L) −47.95 ± 0.22
Protocol: (§1) Experiments were performed on adult female Sprague Dawley rats. A population of unidentified DRG cells and a population of DRG neurons that innervate the urinary bladder were labeled by retrograde axonal transport of the fluorescent dye, Fast Blue (4% w/v) (Polyloy, Gross Umstadt, Germany) injected into the wall of the bladder in halothane-anesthetized animals 7 days before the dissociation. The dye was injected with a 28 gauge needle at three to six sites on the dorsal surface of the organ (5–6 μL per site, total volume of 20–30 μL). Each injection site was washed with saline to minimize contamination of adjacent organs with the dye.
(§2) Freshly dissociated neurons from DRG were prepared from halothane-anesthetized animals. L6 and S1 DRG were dissected from animals and then dissociated in a shaking bath for 25 minutes at 35° C. with 5 mL DMEM (Sigma) containing 0.3 mg/mL trypsin (Type 3, Sigma), 1 mg/mL collagenase (Type 1, Sigma), and 0.1 mg/ML deoxyribonuclease (Type 4, Sigma). Trypsin inhibitor (Type 2a, Sigma) was then added thereto to neutralize the activity of trypsin. Individual DRG cell bodies were isolated by trituration and then plated on a poly-L-lysine-coated 35 mm Petri dishes.
(§3) Dye-labeled primary afferent neurons that innervate the urinary bladder were identified using an inverted phase-contrast microscope (Nikon, Tokyo, Japan) with fluorescent attachments (UV-1A filter; excitation wavelength, 365 nm). Gigaohm-seal whole-cell recordings were performed within 6–8 hours after cell dissociation at room temperature (20–22° C.) on each labeled neuron in a culture dish that usually contained three to seven labeled cells among a few hundred unlabeled neurons. The internal solution contained (in mmol/L): KCl 140, CaCl2 1, MgCl2 2, EGTA 11, HEPES 10, Mg-ATP 2, and Tris-GTP 0.4 adjusted to pH 7.4 with KOH. Patch electrodes had resistances of 1–4 M Ω when filled with the internal solution. Neurons were superfused at a flow rate of 1.5 mL/minutes with an external solution containing (in mmol/L): NaCl 150, KCl 5, CaCl2 2.5, MgCl2 1, HEPES 10, and D-glucose 10, adjusted to pH 7.4 with NaOH. All recordings were made with an Axopatch-1D patch-clamp amplifier (Axon Instruments, Foster City, Calif.), and data were acquired and analyzed by PCLAMP software (Axon Instruments).
In current-clamp recordings, membrane potential of DRG cell were measured before and after compound applications. The membrane potentials were normalized to control (before addition of the compound).

[1] = tested on: Na^+ currents in DRG cells; test: Voltage clamp, inward Na+ currents in DRG cells; assay type: cell-based, rat
Protocol: as §1, with “First and second series of the experiments were performed, respectively, in unidentified DRG neurons and a specific” for “A”, “of” for “of unidentified”, “neurons innervating the urinary bladder. The” for “cells and a”, “Germany),” for “Germany)”
as §2, with “mg/mL” for “mg/ML”
as §3, with “performed” for “performed within 6–8 hours after cell dissociation”
Inward Na^+ currents were evoked by voltage steps to +60 mV, 800 ms long from a holding potentials of −90 mV. Currents were measured at the maximum (peak) and normalized to control (before addition of the compound).

dd male mice = conditions: mouse, in vivo, po, 7 day
Protocol: The test compound was administered orally or intraperitoneally to 3 animals per group of dd male mice (body weight, 20±1 g). Minimum lethal dose (MLD) value was obtained by observing mortality on the 7th day after the administration.

`C[C@](O)(C(=O)Nc1cccc2c1C(=O)c1sccc1CS2(=O)=O)C(F)(F)F` [Compound 1, (S)-(+)-N-(5,5-dioxido-10-oxo-4,10-dihydrothieno[3,2-c][1]benzothiepin-9-yl)-3,3,3-trifluoro-2-hydroxy-2-methylpropanamide] showed a Membrane potential (DRG cells; Compound 1 1.0 × 10^−6 mol/L) of −53.67 ± 0.74 mV, a Membrane potential (DRG cells; Compound 1 1.0 × 10^−7 mol/L) of −57.17 ± 0.53 mV and a Membrane potential (DRG cells; Compound 1 1.0 × 10^−8 mol/L) of −49.80 ± 0.65 mV. It also gave a Membrane potential (DRG cells; Compound 1 1.0 × 10^−9 mol/L) of −48.10 ± 0.48 mV, a Membrane potential (DRG cells; Compound 1 5.0 × 10^−4 mol/L) of −42.67 ± 1.46 mV and a Membrane potential (DRG cells; Compound 1 5.0 × 10^−5 mol/L) of −48.50 ± 1.28 mV. For the same compound, the Membrane potential (DRG cells; Compound 1 5.0 × 10^−6 mol/L) was −50.50 ± 0.88 mV, the “Na^+ ion currents, normalized to control (before addition)” value (shortened to “Na^+ ion currents, normalized to control”) ([1]; Compound 1 1.0 × 10^−6 mol/L) was 0.99 ± 0.02 and the “Na^+ ion currents, normalized to control” value ([1]; Compound 1 5.0 × 10^−4 mol/L) was 1.00 ± 0.01. The “Na^+ ion currents, normalized to control” value ([1]; Compound 1 5.0 × 10^−5 mol/L) was 1.00 ± 0.01, the “Na^+ ion currents, normalized to control” value ([1]; Compound 1 5.0 × 10^−6 mol/L) was 1.00 ± 0.00 and the “Na^+ ion currents, normalized to control” value ([1]; Compound 1 5.0 × 10^−7 mol/L) was 0.99 ± 0.01. For the same compound, the “Na^+ ion currents, normalized to control” value ([1]; Compound 1 5.0 × 10^−8 mol/L) was 0.99 ± 0.01, the “Influence upon Na^+ currents (in words)” value ([1]; DRG cells) was “does not exert influence upon Na^+ currents” and the “Minimum lethal dose (MLD)” value (dd male mice) was > 1,000 mg/kg.
